Test results reported in the supplement of paper PMC11451515.

How the values were obtained:
Settings in all cases: 48 h
[1] = tested on: SEM cells; experiment: AUC of viability dose-response curve (% viability x log10 dose units); higher = less sensitive
Method in brief: (§1)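 Seeding of medium-adapted leukemia cells was at 500 or 1000 cells/well in 1536-well plates, followed by 48 h at 37°C with library compounds in DMSO at 11 threefold doses from 47 μM to 0.79 nM. CellTiter-Glo One luminescence was normalised per plate to DMSO and cell-free wells and fitted as a four-parameter log-logistic function of log10 dose. Area under the curve was integrated by trapezoidal rule, with curves exceeding full viability scaled and curves failing quality control removed.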

[2] = tested on: NOMO1; experiment: as above
Method in brief: as §1

[3] = tested on: P12-Ichikawa; experiment: as above
Method in brief: as §1

[4] = tested on: SEM cells; experiment: cell viability relative to DMSO control; higher = less cytotoxic
Method in brief: (§2)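 NOMO1 or SEM (500 cells/well) or P12-Ichikawa (1000 cells/well) leukemia cells were adapted for at least four passages in each medium. They were seeded in 1536-well plates (5 μl) and pin-dosed with library compounds in DMSO over an 11-point threefold series, 47 μM to 0.79 nM. CellTiter-Glo One luminescence was read after 48 h at 37°C. Viability is the per-plate percentage relative to DMSO wells, with cell-free wells as background.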

[5] = tested on: NOMO1; experiment: as above
Method in brief: as §2

[6] = tested on: P12-Ichikawa; experiment: as above
Method in brief: as §2

CC(C)(C)NC(=O)Nc1cccc(Nc2ncc(F)c(NC(C)(C)CO)n2)c1
AUC of viability dose-response curve
Settings	[1]	[2]	[3]
HPLM + 10% dialyzed FBS	415	477	415
RPMI 5 mM glucose + 10% FBS	396	450	425
RPMI 5 mM glucose + 10% dialyzed FBS	397	459	429

cell viability [%]
Settings	[4]	[5]	[6]
HPLM + 10% dialyzed FBS, 0.000781 µM	101	99.9	105
HPLM + 10% dialyzed FBS, 0.00234 µM	99.9	115	110
HPLM + 10% dialyzed FBS, 0.00702 µM	103	133	112
HPLM + 10% dialyzed FBS, 0.0211 µM	104	140	114
HPLM + 10% dialyzed FBS, 0.0632 µM	109	112	118
HPLM + 10% dialyzed FBS, 0.19 µM	102	137	121
HPLM + 10% dialyzed FBS, 0.569 µM	99.8	122	117
HPLM + 10% dialyzed FBS, 1.71 µM	101	130	120
HPLM + 10% dialyzed FBS, 5.12 µM	77.1	127	108
HPLM + 10% dialyzed FBS, 15.4 µM	31.5	111	14.7
HPLM + 10% dialyzed FBS, 46.1 µM	29.9	108	24.4
RPMI 5 mM glucose + 10% FBS, 0.000781 µM	108	123	114
RPMI 5 mM glucose + 10% FBS, 0.00234 µM	103	115	118
RPMI 5 mM glucose + 10% FBS, 0.00702 µM	104	127	124
RPMI 5 mM glucose + 10% FBS, 0.0211 µM	108	112	121
RPMI 5 mM glucose + 10% FBS, 0.0632 µM	115	135	129
RPMI 5 mM glucose + 10% FBS, 0.19 µM	120	112	121
RPMI 5 mM glucose + 10% FBS, 0.569 µM	95.8	120	122
RPMI 5 mM glucose + 10% FBS, 1.71 µM	102	133	132
RPMI 5 mM glucose + 10% FBS, 5.12 µM	69.1	111	116
RPMI 5 mM glucose + 10% FBS, 15.4 µM	16.4	69.8	35.2
RPMI 5 mM glucose + 10% FBS, 46.1 µM	9.58	98.4	40.4
RPMI 5 mM glucose + 10% dialyzed FBS, 0.000781 µM	107	–	120
RPMI 5 mM glucose + 10% dialyzed FBS, 0.00234 µM	118	–	117
RPMI 5 mM glucose + 10% dialyzed FBS, 0.00702 µM	110	–	120
RPMI 5 mM glucose + 10% dialyzed FBS, 0.0211 µM	115	–	116
RPMI 5 mM glucose + 10% dialyzed FBS, 0.0632 µM	115	–	124
RPMI 5 mM glucose + 10% dialyzed FBS, 0.19 µM	120	–	119
RPMI 5 mM glucose + 10% dialyzed FBS, 0.569 µM	111	–	117
RPMI 5 mM glucose + 10% dialyzed FBS, 1.71 µM	103	–	119
RPMI 5 mM glucose + 10% dialyzed FBS, 5.12 µM	71.8	–	114
RPMI 5 mM glucose + 10% dialyzed FBS, 15.4 µM	19.9	–	34.6
RPMI 5 mM glucose + 10% dialyzed FBS, 46.1 µM	16	–	51

O=C(c1ccc(F)cc1)N1CCC[C@H](c2nc(-c3ccc(F)cc3)no2)C1
AUC of viability dose-response curve
Settings	[1]	[2]	[3]
HPLM + 10% dialyzed FBS	453	467	460
RPMI 5 mM glucose + 10% FBS	455	453	459
RPMI 5 mM glucose + 10% dialyzed FBS	475	472	459

cell viability [%]
Settings	HPLM + 10% dialyzed FBS	RPMI 5 mM glucose + 10% FBS	RPMI 5 mM glucose + 10% dialyzed FBS
[4], 0.000781 µM	119	119	104
[4], 0.00234 µM	120	111	103
[4], 0.00702 µM	122	124	130
[4], 0.0211 µM	112	121	125
[4], 0.0632 µM	128	128	105
[4], 0.19 µM	114	117	116
[4], 0.569 µM	111	111	118
[4], 1.71 µM	104	112	113
[4], 5.12 µM	102	99.4	102
[4], 15.4 µM	105	106	101
[4], 46.1 µM	115	116	128
[6], 0.000781 µM	119	115	120
[6], 0.00234 µM	121	122	128
[6], 0.00702 µM	120	122	123
[6], 0.0211 µM	124	128	119
[6], 0.0632 µM	117	144	117
[6], 0.19 µM	121	120	126
[6], 0.569 µM	116	128	116
[6], 1.71 µM	113	116	105
[6], 5.12 µM	107	111	118
[6], 15.4 µM	113	114	110
[6], 46.1 µM	106	115	111

CC(C)C1NC(=O)C(NC(=O)C2=C3\N=C\4/C(=C(C)\C(=O)\C(=C4C(=O)NC5C(C)OC(=O)C(C(C)C)N(C)C(=O)CN(C)C(=O)C6CCCN6C(=O)C(NC5=O)C(C)C)N)OC3=C(C)C=C2)C(C)OC(=O)C(C(C)C)N(C)C(=O)CN(C)C(=O)C7CCCN7C1=O (stereo not given)
AUC of viability dose-response curve
Settings	[1]	[2]	[3]
HPLM + 10% dialyzed FBS	26.3	27.9	31.2
RPMI 5 mM glucose + 10% FBS	20.8	28.1	24.5
RPMI 5 mM glucose + 10% dialyzed FBS	23.4	23	38

cell viability [%]
Settings	[4]	[5]	[6]
HPLM + 10% dialyzed FBS, 0.000781 µM	8.02	7.64	8.89
HPLM + 10% dialyzed FBS, 0.00234 µM	8.45	9.4	7.61
HPLM + 10% dialyzed FBS, 0.00702 µM	8.63	7.42	7.74
HPLM + 10% dialyzed FBS, 0.0211 µM	7.17	5.43	7.98
HPLM + 10% dialyzed FBS, 0.0632 µM	5.33	6.88	8.48
HPLM + 10% dialyzed FBS, 0.19 µM	4.97	5.51	7.48
HPLM + 10% dialyzed FBS, 0.569 µM	5.75	6.57	8.02
HPLM + 10% dialyzed FBS, 1.71 µM	5.02	6.12	5.74
HPLM + 10% dialyzed FBS, 5.12 µM	3.36	3.81	3.17
HPLM + 10% dialyzed FBS, 15.4 µM	1.81	2.42	4.3
HPLM + 10% dialyzed FBS, 46.1 µM	1.57	2.47	1.52
RPMI 5 mM glucose + 10% FBS, 0.000781 µM	6.55	7.96	7.97
RPMI 5 mM glucose + 10% FBS, 0.00234 µM	8.45	9.36	8.99
RPMI 5 mM glucose + 10% FBS, 0.00702 µM	7.11	7.73	7.91
RPMI 5 mM glucose + 10% FBS, 0.0211 µM	5.21	5.14	6.03
RPMI 5 mM glucose + 10% FBS, 0.0632 µM	4.11	6.66	5.96
RPMI 5 mM glucose + 10% FBS, 0.19 µM	3.76	5.99	6.1
RPMI 5 mM glucose + 10% FBS, 0.569 µM	4.54	5.54	5.29
RPMI 5 mM glucose + 10% FBS, 1.71 µM	3.75	6.58	3.26
RPMI 5 mM glucose + 10% FBS, 5.12 µM	2.28	4.43	1.15
RPMI 5 mM glucose + 10% FBS, 15.4 µM	1.15	2.79	2.04
RPMI 5 mM glucose + 10% FBS, 46.1 µM	1.09	1.97	1.27
RPMI 5 mM glucose + 10% dialyzed FBS, 0.000781 µM	6.94	5.95	9.93
RPMI 5 mM glucose + 10% dialyzed FBS, 0.00234 µM	7.82	8.79	10.6
RPMI 5 mM glucose + 10% dialyzed FBS, 0.00702 µM	7.08	6.56	9.2
RPMI 5 mM glucose + 10% dialyzed FBS, 0.0211 µM	7.7	5.07	10.8
RPMI 5 mM glucose + 10% dialyzed FBS, 0.0632 µM	5.11	5.04	7.89
RPMI 5 mM glucose + 10% dialyzed FBS, 0.19 µM	4.36	5.51	8.14
RPMI 5 mM glucose + 10% dialyzed FBS, 0.569 µM	5.1	4.5	8.28
RPMI 5 mM glucose + 10% dialyzed FBS, 1.71 µM	3.89	3.94	7.16
RPMI 5 mM glucose + 10% dialyzed FBS, 5.12 µM	1.96	3.31	6.45
RPMI 5 mM glucose + 10% dialyzed FBS, 15.4 µM	2.2	2.14	4.57
RPMI 5 mM glucose + 10% dialyzed FBS, 46.1 µM	1.26	2	3.47
